Reference: ChEMBL document CHEMBL1127594, “Inhibitors of acyl-CoA:cholesterol O-acyltransferase. 11. Structure-activity relationships of several series of compounds derived from N-(chlorocarbonyl) isocyanate” (J Med Chem, 1994)

What was measured:
[1] = tested on: Rattus norvegicus; assay: In vivo hypocholesterolemic activity was measured in an acute, cholesterol-fed rat model (APCC) at 30 mg/kg dose.; type: functional
[2] = molecular target: O-acyltransferase (Oryctolagus cuniculus, UniProt G1SFD9); assay: In vitro Acyl coenzyme A:cholesterol acyltransferase inhibitory activity (IAI) was determined by measuring the incorporation of [1-14C]oleolyl-CoA into cholesterol esters by intestinal microsomes isolated from cholesterol-fed rabbits; set-up: species or system Intestine
Chain of O-acyltransferase (G1SFD9 1-524): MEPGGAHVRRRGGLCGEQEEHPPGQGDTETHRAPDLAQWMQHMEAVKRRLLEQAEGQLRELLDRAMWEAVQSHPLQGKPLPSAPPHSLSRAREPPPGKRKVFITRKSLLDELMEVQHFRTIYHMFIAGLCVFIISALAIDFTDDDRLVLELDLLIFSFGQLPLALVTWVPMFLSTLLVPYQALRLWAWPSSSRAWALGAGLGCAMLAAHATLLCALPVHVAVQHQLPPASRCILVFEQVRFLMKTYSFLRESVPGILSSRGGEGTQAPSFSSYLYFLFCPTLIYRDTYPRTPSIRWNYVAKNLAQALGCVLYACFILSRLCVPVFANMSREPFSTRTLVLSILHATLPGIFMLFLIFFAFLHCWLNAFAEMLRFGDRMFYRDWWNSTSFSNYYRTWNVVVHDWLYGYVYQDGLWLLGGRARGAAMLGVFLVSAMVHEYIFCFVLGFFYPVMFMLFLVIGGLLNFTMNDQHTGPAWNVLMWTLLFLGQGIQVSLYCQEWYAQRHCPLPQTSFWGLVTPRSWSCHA

Row | IC50 [2] | Structure (SMILES) | Delta TC [1]
1 | 58 nM | CCCCCCCCCCCCCCC(C)OC(=O)NC(=O)Oc1c(C(C)C)cccc1C(C)C (racemic) | <-43%
2 | 8 nM | CCCCCCCCCCCCC(C)SC(=O)NC(=O)Oc1c(C(C)C)cccc1C(C)C (racemic) | <-60%
3 | 120 nM | CCCCCCCCCCCCOC(=O)NC(=O)Nc1c(C(C)C)cccc1C(C)C | <-38%
4 | 390 nM | CCCCCCCC(C)OC(=O)NC(=O)Nc1c(C(C)C)cccc1C(C)C (configuration not stated) | <-24%
5 | 9 nM | CCCCCCCCCCCCCOC(=O)NC(=O)Oc1c(C(C)C)cccc1C(C)C | <-69%
6 | 65 nM | CCCCCCCCCCCCC(C)(C)OC(=O)NC(=O)Nc1c(C(C)C)cccc1C(C)C | –
7 | 20 nM | CCCCCCCCCCC(C)(C)COC(=O)NC(=O)Oc1c(C(C)C)cccc1C(C)C | <-72%
8 | 1900 nM | CC(C)c1cccc(C(C)C)c1NC(=O)NC(=O)N1c2ccccc2Sc2ccccc21 | -6%
9 | 890 nM | CC(C)c1cccc(C(C)C)c1NC(=O)NC(=O)N1c2ccccc2Cc2ccccc21 | -18%
10 | – | CC(C)c1cccc(C(C)C)c1NC(=O)NC(=O)NC(c1ccccc1)c1ccccc1 | 4%
11 | – | CCN(CC)C(=O)NC(=O)Nc1c(C(C)C)cccc1C(C)C | -16%
12 | – | CCCCCCCCCCCCOC(=O)NC(=O)Sc1c(C(C)C)cccc1C(C)C | -4%
13 | 890 nM | CC(C)c1cccc(C(C)C)c1NC(=O)NC(=O)N1CCC(c2ccccc2)CC1 | 3%
14 | 340 nM | CC(C)c1cccc(C(C)C)c1NC(=O)NC(=O)N(c1ccccc1)c1ccccc1 | <-49%
15 | – | CC(C)c1cccc(C(C)C)c1NC(=O)NC(=O)Nc1c(C(C)C)cccc1C(C)C | 0%
16 | > 5000 nM | CCCCCCCCCCCCSC(=O)NC(=O)Sc1c(C(C)C)cccc1C(C)C | <-36%
17 | 160 nM | CCCCCCCCSC(=O)NC(=O)Oc1c(C(C)C)cccc1C(C)C | <-63%
18 | 750 nM | CC(C)c1cccc(C(C)C)c1NC(=O)NC(=O)N(Cc1ccccc1)C(C)C | <-22%
19 | – | CCCCCCCCCCCCCCCCOC(=O)NC(=O)Oc1c(C(C)C)cccc1C(C)C | <-70%
20 | 250 nM | CCCCN(CCCC)C(=O)NC(=O)Nc1c(C(C)C)cccc1C(C)C | <-30%
21 | > 1000 nM | CCCCCCCCCCCCC(C)OC(=O)NC(=O)Oc1c(F)cccc1F (racemic) | <-35%
22 | – | CC(C)c1cccc(C(C)C)c1NC(=O)NC(=O)N1CCCC1 | -7%

Row | IC50 [2] | Structure (SMILES) | Delta TC [1]
23 | 350 nM | CCCCCCCCN(CCCCCCCC)C(=O)NC(=O)Nc1c(C(C)C)cccc1C(C)C | 3%
24 | 7800 nM | CC(C)c1cccc(C(C)C)c1NC(=O)NC(=O)OC(c1ccccc1)c1ccccc1 | -3%
25 | – | CC(C)c1cccc(C(C)C)c1OC(=O)NC(=O)NC(c1ccccc1)c1ccccc1 | -4%
26 | 46 nM | CCCCCCCCCCCCC(C)OC(=O)NC(=O)Nc1c(C(C)C)cccc1C(C)C (configuration not stated) | <-33%
27 | 880 nM | CC(C)c1cccc(C(C)C)c1OC(=O)NC(=O)SCCc1ccccc1 | -30%
28 | 1060 nM | CCCCCC(C)OC(=O)NC(=O)Nc1c(C(C)C)cccc1C(C)C (configuration not stated) | <-22%
29 | 6800 nM | CCCCCCCCCCCCCCC(C)OC(=O)NC(=O)Nc1c(C(C)C)cccc1C(C)C (configuration not stated) | <-26%
30 | > 5000 nM | CCCCCCCCCCCCCCOC(=O)NC(=O)Oc1c(OC)cc(OC)cc1OC | -15%
31 | 97 nM | CC(C)c1cccc(C(C)C)c1OC(=O)NC(=O)SC1CCCCC1 | <-63%
32 | 660 nM | CC(C)c1cccc(C(C)C)c1OC(=O)NC(=O)OCCCc1ccccc1 | -24%
33 | > 5000 nM | Cc1cccc(C)c1OC(=O)NC(=O)Oc1c(C)cccc1C | 4%
34 | – | CCCCCCCCCCC(C)OC(=O)NC(=O)Nc1c(C(C)C)cccc1C(C)C (configuration not stated) | <-26%
35 | > 5000 nM | Cc1cccc(C)c1SC(=O)NC(=O)Sc1c(C)cccc1C | -13%
36 | 10 nM | CCCCCCCCCCCCCCOC(=O)NC(=O)Oc1c(C(C)C)cccc1C(C)C | <-59%
37 | 1040 nM | CC(C)c1cccc(C(C)C)c1NC(=O)NC(=O)N(Cc1ccccc1)Cc1ccccc1 | -14%
38 | 210 nM | CCCCCCCCCCCSC(=O)NC(=O)Oc1c(C(C)C)cccc1C(C)C | <-54%
39 | 440 nM | CC(C)c1cccc(C(C)C)c1OC(=O)NC(=O)SCc1ccccc1 | <-43%
40 | 1700 nM | CCCCCCCCCCCCCCN(C)C(=O)NC(=O)Nc1c(C(C)C)cccc1C(C)C | –
41 | 440 nM | CC(C)c1cccc(C(C)C)c1NC(=O)N(C)C(=O)N(c1ccccc1)c1ccccc1 | –
42 | 77 nM | CC(C)c1cccc(C(C)C)c1OC(=O)NC(=O)OCc1ccccc1 | -23%
43 | 250 nM | CCCCCCCCCCCCSC(=O)NC(=O)Oc1c(OC)cc(OC)cc1OC | <-59%
44 | 750 nM | CCCCCCCCC(C)OC(=O)NC(=O)Nc1c(C(C)C)cccc1C(C)C (configuration not stated) | <-22%

Row | Structure (SMILES) | IC50 [2] | Delta TC [1]
45 | CCCCCC(C)OC(=O)NC(=O)Oc1c(C(C)C)cccc1C(C)C (racemic) | 102 nM | <-60%
46 | CCCCCCCC(C)OC(=O)NC(=O)Oc1c(C(C)C)cccc1C(C)C (racemic) | 97 nM | <-56%
47 | CC(C)c1cccc(C(C)C)c1OC(=O)NC(=O)Oc1cccc2ccccc12 | 3700 nM | –
48 | CCCCC(C)(C)OC(=O)NC(=O)Oc1c(C(C)C)cccc1C(C)C | 64 nM | -29%
49 | CC(C)c1cccc(C(C)C)c1OC(=O)NC(=O)SCc1ccc(Cl)cc1 | 160 nM | <-50%
50 | O=C(NC(=O)Oc1c(-c2ccccc2)cccc1-c1ccccc1)Oc1c(-c2ccccc2)cccc1-c1ccccc1 | 230 nM | 0%
51 | CCCCCCCCCCCCSC(=O)NC(=O)Oc1c(C(C)C)cccc1C(C)C | 16 nM | <-63%
52 | CCCCCCCCCCCCC(C)OC(=O)N(C)C(=O)Oc1c(C(C)C)cccc1C(C)C (racemic) | > 1000 nM | -8%
53 | CCCCCCCCCCCCC(C)OC(=O)NC(=O)Oc1c(C(C)C)cccc1C(C)C (racemic) | 17 nM | <-50%
54 | CCCCCCCCCCC(C)OC(=O)NC(=O)Oc1c(C(C)C)cccc1C(C)C (racemic) | 49 nM | <-66%
55 | CCCCCCCCCCCOC(=O)NC(=O)Oc1c(C(C)C)cccc1C(C)C | 140 nM | <-65%
56 | CC(C)(C)c1cccc(C(C)(C)C)c1OC(=O)NC(=O)Oc1c(C(C)(C)C)cccc1C(C)(C)C | 1200 nM | <-23%
57 | CC(C)c1cccc(C(C)C)c1NC(=O)NC(=O)Oc1c(C(C)C)cccc1C(C)C | 980 nM | <-25%
58 | CCCCCCCCOC(=O)NC(=O)Oc1c(C(C)C)cccc1C(C)C | 250 nM | <-47%
59 | CCCCC[C@@H](C)OC(=O)NC(=O)Oc1c(C(C)C)cccc1C(C)C | 130 nM | <-49%
60 | CCCCCCCCCCSC(=O)NC(=O)Oc1c(C(C)C)cccc1C(C)C | 130 nM | <-52%
61 | CCCCCCCCC(C)OC(=O)NC(=O)Oc1c(C(C)C)cccc1C(C)C (racemic) | 270 nM | <-54%

Row | Structure (SMILES) | IC50 [2] | Delta TC [1]
62 | CCCCC[C@H](C)OC(=O)NC(=O)Oc1c(C(C)C)cccc1C(C)C | 98 nM | -25%
63 | CC(C)c1cccc(C(C)C)c1OC(=O)NC(=O)OC(c1ccccc1)c1ccccc1 | 350 nM | <-44%
64 | CCCCCCOC(=O)NC(=O)Oc1c(C(C)C)cccc1C(C)C | 53 nM | <-38%
65 | CC(C)c1cccc(C(C)C)c1OC(=O)NC(=O)N(c1ccccc1)c1ccccc1 | 170 nM | -3%
66 | CC(C)c1cccc(C(C)C)c1OC(=O)NC(=O)Sc1ccccc1 | > 5000 nM | <-37%
67 | CCCCCCCCCCCCC(C)(C)OC(=O)NC(=O)Oc1c(C(C)C)cccc1C(C)C | 21 nM | <-51%
68 | CCCCCCCCCCCCOC(=O)NC(=O)Oc1c(C(C)C)cccc1C(C)C | 21 nM | <-52%
69 | CCCCCCCCCCOC(=O)NC(=O)Oc1c(C(C)C)cccc1C(C)C | 74 nM | <-44%
70 | CC(C)c1cccc(C(C)C)c1OC(=O)NC(=O)Oc1ccccc1 | 1800 nM | <-29%
71 | COC(=O)C(OC(=O)NC(=O)Oc1c(C(C)C)cccc1C(C)C)c1ccccc1 (configuration not stated) | 940 nM | -3%
72 | CCCCCCCCCCCCCCCCCCOC(=O)NC(=O)Oc1c(C(C)C)cccc1C(C)C | 1000 nM | <-35%
73 | CC(C)c1cccc(C(C)C)c1OC(=O)NC(=O)SCCCc1ccccc1 | 69 nM | <-63%
74 | CC(C)c1cccc(C(C)C)c1OC(=O)NC(=O)Oc1c(C(C)C)cccc1C(C)C | 110 nM | -24%
75 | CC(C)c1cccc(C(C)C)c1OC(=O)NC(=O)SCc1ccco1 | 470 nM | <-51%
76 | CC(C)c1cccc(C(C)C)c1OC(=O)NC(=O)Sc1c(C(C)C)cccc1C(C)C | 3200 nM | <-20%
77 | CC(C)c1cccc(C(C)C)c1OC(=O)NC(=O)SCCN1CCOCC1 | 900 nM | <-33%
